Tests used:
Format in all cases: cell-based, human
adult NHDFs [1] = experiment: Collagen-boosting assay, Example 4 (PIP ELISA; Mitostime in combination with Argireline); settings: 10 ng/ml; 3 days
Method: Mitostime also was tested in combination with Argireline for efficacy in boosting collagen synthesis in NHDFs. TGFβ, at 10 ng/ml, was run as a positive control. Adult NHDFs were seeded and grown to confluence in a 96 well plate prior to treatment with Mitostime at 0.3%/Argireline peptide at 0.00005%; Mitostime at 0.15%/Argireline peptide at 0.000025%; and Mitostime at 0.075%/Argireline peptide at 0.0000125%. The plate was incubated for 3 days at 37° C./5% CO2. Supernatants were harvested and stored at −80° C. in siliconized tubes until the PIP ELISA was performed as outlined in Example 1. For this assay, supernatants were diluted 1:200. […] TGFβ increased collagen synthesis by 23%.

adult NHDFs [2] = experiment: Collagen-boosting assay, Example 4 (PIP ELISA; Mitostime); settings: 10 ng/ml; 3 days
Method: Mitostime was tested for its collagen-boosting efficacy in NHDFs. TGFβ, at 10 ng/ml, was run as a positive control. Adult NHDFs were seeded and grown to confluence in a 96 well plate prior to treatment with mitostime 0.075%, 0.15% and 0.3% (w/v). The plate was incubated for 3 days at 37° C./5% CO2. Supernatants were harvested and stored at −80° C. in siliconized tubes until the PIP ELISA was performed as outlined in Example 1. For this assay, supernatants were diluted 1:200. […] TGFβ increased collagen synthesis by 27% (p=0.0001).

adult NHDFs [3] = experiment: Collagen-boosting assay, Example 3 (PIP ELISA; Argireline); settings: 3 days
Method: In this assay, Argireline was tested for its efficacy in boosting collagen synthesis in NHDFs. TGFβ was run as a positive control.
Adult NHDFs were seeded and grown to confluence in a 96 well plate prior to treatment with Argireline at concentrations of 0.001, 0.01, 0.1 and 1% (v/v) in media (negative control) or with 10 ng/ml TGFβ (positive control) in media.
The plate was incubated for 3 days at 37° C./5% CO2. Supernatants were harvested and stored at −80° C. in siliconized tubes until the PIP ELISA was performed, as described in Example 1. For this assay, supernatants were diluted 1:40.

adult NHDF cells = experiment: Collagen-boosting assay, Example 5 (PIP ELISA; NXP-75); settings: 10 ng/ml; 3 days
Method: In this assay, NXP-75 was tested for its efficacy in boosting collagen synthesis in NHDFs. TGFβ (10 ng/ml) was run as a positive control. Adult NHDF cells were seeded and grown to confluence in a 96 well flat bottom plate prior to treatment. NXP-75 powder was prepared at the following dilutions: 0.0001, 0.001, 0.01 and 0.1% (w/v) in media (negative control). The plate was incubated for 3 days at 37° C./5% CO2. Supernatants were harvested and stored at −80° C. in siliconized tubes until the PIP ELISA was performed. For this assay, supernatants were diluted 1:200. […] TGFβ enhanced collagen synthesis by 20% compared with media.

Substance | increase in collagen synthesis (adult NHDFs [1]) | increase in collagen synthesis compared with media (adult NHDFs [2]) | increase in collagen levels (adult NHDFs [3]; 10 ng/ml) | boost of collagen synthesis compared with media (adult NHDF cells) | increase in collagen synthesis compared with media (adult NHDFs [3]; 0.01%) | increase in collagen synthesis compared with media (adult NHDFs [3]; 0.1% (v/v))
TGFβ | 23% | 27% | 147% | 20% | – | –
acetyl hexapeptide-3 [Argireline] | – | – | – | – | 29% | 76%

— patent publication US20160243021A1, “Collagen-Boosting Compositions And Methods” (ELC MANAGEMENT LLC, priority 2015, published 2016)
